US9127103B2, “Polymerizable liquid crystal compound, a liquid crystal composition comprising the compound, and an optically anisotropic body comprising the same” (LG CHEM, LTD., priority 2012, dated 2015)

How the values were obtained:
[1] = Measurement of solubility of the compound in various solvents; format: physicochemical; conditions: for Solubility TXB: TXB = Toluene:Xylene:Butyl cellosolve 7:2:1 (weight ratio); for Solubility TXB / Solubility Cyclopentanone / Solubility Toluene + Heated: 25 parts by weight per 100 parts of solution; for Solubility Toluene + Heated: room temperature solution heated about 10 secs with a heat gun; for Solubility Toluene: 25 parts by weight of compound per 100 parts by weight of total solution
Experimental: At this time, the content of each compound in the solvent was 25 parts by weight per 100 parts by weight of total solution. In the following Table 1, when the compound was completely dissolved in the solvent and the solution was transparent, it was indicated by ‘◯’; when the compound was dissolved in the solvent but the solution was opaque, it was indicated by ‘Δ’; and when the compound was not dissolved at all, it was indicated by ‘×’. And, the term ‘heated’ in Table 1 means that the solution of room temperature including the compound was heated for about 10 secs by using a heat gun.

[2] = Measurement of birefringence (Δn) of retardation films by Axoscan; format: physicochemical; conditions: retardation film of the compound; solvent TXB, TAC film; Δn calculated from retardation value and film thickness
Experimental: The liquid crystal composition coated with a roll coating method on a TAC (triacetyl cellulose) film on which norbornene-based photoaligning material was coated, and dried at about 80° C. for 2 mins so as that the liquid crystal compound was aligned. And then, the retardation film was prepared by exposing the film to a non-polarized UV from a high pressure mercury lamp of 200 mW/cm^2 so as to fixing the oriented state of the liquid crystal.
Like above method, the compositions including any one of compounds RM-02 to RM-08 instead of compound RM-01 were prepared, and the retardation films were prepared respectively by using the same.
And, the retardation film was prepared substantially according to the same method as in Preparation Examples 1˜8, except that the compound of Chemical Formula 10 was used instead of compound RM-01.
Quantitative retardation values of the retardation films according to Preparation Examples 1˜8, Comparative Preparation Examples 1˜2, and Reference Example were measured by using Axoscan (made by Axomatrix Co.). At this time, the thickness of the film was independently measured and Δn was calculated from the obtained values.

| Compound | Solubility TXB [1] | Solubility Cyclopentanone [1] | Solubility Toluene + Heated [1] | Δn (Solvent, Film) [2] | Solubility in toluene [1] | Solubility in toluene with heating [1] | Solubility Toluene [1] | Solubility in TXB mixed solvent [1] |
| --- | --- | --- | --- | --- | --- | --- | --- | --- |
| C=CC(=O)OCCCOc1ccc(C(=O)Oc2ccc(OC(=O)c3ccc(OCCCOC(=O)C=C)cc3)c(C)c2)cc1 [RM257, reference compound] | ∘ | ∘ | ∘ | 0.12 (TXB, TAC) |  |  |  |  |
| C=CC(=O)OCCCOc1ccc2cc(C(=O)Oc3ccc(OC(=O)c4ccc5cc(OCCCOC(=O)C=C)ccc5c4)c([N+](=O)[O-])c3)ccc2c1 [RM-03] | ∘ | ∘ | ∘ | 0.17 (TXB, TAC) |  |  | ∘ |  |
| C=CC(=O)OCCCOc1ccc2cc(C(=O)Oc3ccc(OC(=O)c4ccc5cc(OCCCOC(=O)C=C)ccc5c4)cc3)ccc2c1 [RM-09, reference compound] |  |  |  |  | not dissolved in toluene at all | just opaque solution was obtained |  | not dissolved in TXB mixed solvent at all |
| C=CC(=O)OCCCOc1ccc2cc(C(=O)Oc3ccc(OC(=O)c4ccc5cc(OCCCOC(=O)C=C)ccc5c4)c(C=O)c3)ccc2c1 [RM-01] | ∘ | ∘ | ∘ | 0.17 (TXB, TAC) |  |  |  |  |

The next lines start with results.

| Solubility TXB [1] | Solubility Cyclopentanone [1] | Solubility Toluene + Heated [1] | Δn (Solvent, Film) [2] | Solubility in toluene [1] | Solubility in toluene with heating [1] | Solubility Toluene [1] | Compound | Solubility in TXB mixed solvent [1] |
| --- | --- | --- | --- | --- | --- | --- | --- | --- |
| ∘ | ∘ | ∘ | 0.20 (TXB, TAC) |  |  |  | C=CC(=O)OCCCCCCOc1ccc2cc(C(=O)Oc3ccc(OC(=O)c4ccc5cc(OCCCCCCOC(=O)C=C)ccc5c4)c(S(C)(=O)=O)c3)ccc2c1 [RM-06] |  |
| ∘ |  | ∘ | 0.18 (TXB, TAC) |  |  |  | C=CC(=O)OCCCCCCOc1ccc2cc(C(=O)Oc3ccc(OC(=O)c4ccc5cc(OCCCCCCOC(=O)C=C)ccc5c4)c(C=O)c3)ccc2c1 [RM-02] |  |
|  |  |  |  | not dissolved in toluene at all | just opaque solution was obtained |  | C=CC(=O)OCCCCCCOc1ccc2cc(C(=O)Oc3ccc(OC(=O)c4ccc5cc(OCCCCCCOC(=O)C=C)ccc5c4)cc3)ccc2c1 [RM-10, reference compound] | not dissolved in TXB mixed solvent at all |
| ∘ | ∘ | ∘ | 0.19 (TXB, TAC) |  |  | ∘ | C=CC(=O)OCCCOc1ccc2cc(C(=O)Oc3ccc(OC(=O)c4ccc5cc(OCCCOC(=O)C=C)ccc5c4)c(S(C)(=O)=O)c3)ccc2c1 [RM-05] |  |
| ∘ | ∘ | ∘ | 0.19 (TXB, TAC) |  |  | ∘ | C=CC(=O)OCCCOc1ccc2cc(C(=O)Oc3ccc(OC(=O)c4ccc5cc(OCCCOC(=O)C=C)ccc5c4)c(S(=O)(=O)CC)c3)ccc2c1 [RM-07] |  |
| ∘ | ∘ | ∘ | 0.22 (TXB, TAC) |  |  |  | C=CC(=O)OCCCCCCOc1ccc2cc(C(=O)Oc3ccc(OC(=O)c4ccc5cc(OCCCCCCOC(=O)C=C)ccc5c4)c(S(=O)(=O)CC)c3)ccc2c1 [RM-08] |  |
| ∘ | ∘ | ∘ | 0.20 (TXB, TAC) |  |  |  | C=CC(=O)OCCCCCCOc1ccc2cc(C(=O)Oc3ccc(OC(=O)c4ccc5cc(OCCCCCCOC(=O)C=C)ccc5c4)c([N+](=O)[O-])c3)ccc2c1 [RM-04] |  |
